Test results as given in patent US9636418B2 (priority 2013, dated 2017).
Where “and” joins values, the source holds several entries; their conditions need not be identical. Equal entries are not always repeated. Where two headings read alike, the source gives them in different places.

What was measured:
Experiment in all cases: cell-based
[1] = target: T1, hNav1.7 (Homo sapiens, UniProt Q15858); assay type: cell-based; conditions: PatchXpress; * = at high concentrations compound would wash off slowly or not at all; read-out: PX hNav1.7 Tonic IC50
[2] = target: T1, hNav1.7; conditions: IonWorks Quattro; read-out: IC50 Nav1.7
[3] = target: T2, hNav1.4 (Homo sapiens, UniProt P35499); conditions: for IC50: IonWorks Quattro, read-out: IC50 Nav1.4; for Nav1.4/Nav1.7: ratio of IonWorks Quattro IC50 values
[4] = target: hNav1.3 (Homo sapiens, UniProt Q9NY46); conditions: IonWorks Quattro; read-out: IC50 Nav1.3
[5] = target: T3, hNav1.5 (Homo sapiens, UniProt Q14524); conditions: IonWorks Quattro; read-out: IC50 Nav1.5
[6] = target: T2, hNav1.4; conditions: PatchXpress; * = at high concentrations compound would wash off slowly or not at all; read-out: PX hNav1.4 Tonic IC50
[7] = target: T3, hNav1.5; conditions: for IC50: PatchXpress, * = at high concentrations compound would wash off slowly or not at all, read-out: PX hNav1.5 Tonic IC50

T3 sequence (Q14524 whole entry): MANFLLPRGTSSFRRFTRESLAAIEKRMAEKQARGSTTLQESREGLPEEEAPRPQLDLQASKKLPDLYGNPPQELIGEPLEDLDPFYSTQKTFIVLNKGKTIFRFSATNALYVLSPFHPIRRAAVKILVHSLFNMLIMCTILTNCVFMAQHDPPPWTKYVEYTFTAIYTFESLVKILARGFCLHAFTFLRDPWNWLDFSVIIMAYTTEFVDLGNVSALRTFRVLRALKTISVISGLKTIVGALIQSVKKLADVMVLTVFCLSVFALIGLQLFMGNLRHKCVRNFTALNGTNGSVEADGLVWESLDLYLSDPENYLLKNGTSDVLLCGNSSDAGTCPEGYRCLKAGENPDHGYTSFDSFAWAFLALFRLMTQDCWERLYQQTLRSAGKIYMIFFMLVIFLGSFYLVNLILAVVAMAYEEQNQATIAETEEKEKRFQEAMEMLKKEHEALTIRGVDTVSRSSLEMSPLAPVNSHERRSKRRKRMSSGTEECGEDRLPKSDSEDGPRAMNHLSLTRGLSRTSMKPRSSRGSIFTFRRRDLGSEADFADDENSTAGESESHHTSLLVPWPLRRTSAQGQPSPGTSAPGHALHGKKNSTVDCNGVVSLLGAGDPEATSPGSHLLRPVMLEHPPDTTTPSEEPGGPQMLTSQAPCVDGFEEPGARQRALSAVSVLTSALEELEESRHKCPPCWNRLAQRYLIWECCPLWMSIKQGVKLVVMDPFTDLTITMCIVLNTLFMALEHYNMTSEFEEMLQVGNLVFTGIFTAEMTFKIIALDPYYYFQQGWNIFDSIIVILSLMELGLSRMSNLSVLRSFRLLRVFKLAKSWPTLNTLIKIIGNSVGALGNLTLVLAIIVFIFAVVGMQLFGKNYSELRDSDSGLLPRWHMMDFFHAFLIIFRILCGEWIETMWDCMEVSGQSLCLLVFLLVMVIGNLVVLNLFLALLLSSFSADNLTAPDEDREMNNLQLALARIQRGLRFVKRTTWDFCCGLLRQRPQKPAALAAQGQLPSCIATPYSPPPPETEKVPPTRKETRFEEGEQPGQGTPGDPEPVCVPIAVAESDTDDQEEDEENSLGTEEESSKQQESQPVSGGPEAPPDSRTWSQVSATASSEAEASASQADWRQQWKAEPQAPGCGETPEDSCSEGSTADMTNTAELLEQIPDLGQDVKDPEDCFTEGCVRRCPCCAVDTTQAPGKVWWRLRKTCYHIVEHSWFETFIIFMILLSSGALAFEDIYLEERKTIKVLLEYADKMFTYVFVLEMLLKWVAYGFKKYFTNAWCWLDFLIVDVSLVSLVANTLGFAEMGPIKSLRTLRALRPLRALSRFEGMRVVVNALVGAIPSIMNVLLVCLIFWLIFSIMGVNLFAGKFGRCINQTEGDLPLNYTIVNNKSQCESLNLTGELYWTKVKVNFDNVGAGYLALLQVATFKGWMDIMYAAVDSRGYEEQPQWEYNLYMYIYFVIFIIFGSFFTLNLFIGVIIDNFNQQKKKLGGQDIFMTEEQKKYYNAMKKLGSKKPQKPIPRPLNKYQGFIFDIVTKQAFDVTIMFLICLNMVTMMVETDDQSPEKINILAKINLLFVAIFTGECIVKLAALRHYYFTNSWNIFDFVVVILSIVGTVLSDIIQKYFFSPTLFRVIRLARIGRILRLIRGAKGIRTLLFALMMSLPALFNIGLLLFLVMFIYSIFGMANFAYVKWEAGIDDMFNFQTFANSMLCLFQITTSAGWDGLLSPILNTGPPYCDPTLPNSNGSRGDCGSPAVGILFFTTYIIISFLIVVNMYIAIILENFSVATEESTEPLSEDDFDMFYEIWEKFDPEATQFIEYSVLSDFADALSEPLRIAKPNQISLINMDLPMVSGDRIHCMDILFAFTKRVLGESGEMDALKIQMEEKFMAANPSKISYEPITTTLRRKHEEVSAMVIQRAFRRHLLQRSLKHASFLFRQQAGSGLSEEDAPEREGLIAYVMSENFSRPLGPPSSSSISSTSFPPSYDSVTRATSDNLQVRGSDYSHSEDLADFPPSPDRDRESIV
Chain of hNav1.3 (Q9NY46 whole entry): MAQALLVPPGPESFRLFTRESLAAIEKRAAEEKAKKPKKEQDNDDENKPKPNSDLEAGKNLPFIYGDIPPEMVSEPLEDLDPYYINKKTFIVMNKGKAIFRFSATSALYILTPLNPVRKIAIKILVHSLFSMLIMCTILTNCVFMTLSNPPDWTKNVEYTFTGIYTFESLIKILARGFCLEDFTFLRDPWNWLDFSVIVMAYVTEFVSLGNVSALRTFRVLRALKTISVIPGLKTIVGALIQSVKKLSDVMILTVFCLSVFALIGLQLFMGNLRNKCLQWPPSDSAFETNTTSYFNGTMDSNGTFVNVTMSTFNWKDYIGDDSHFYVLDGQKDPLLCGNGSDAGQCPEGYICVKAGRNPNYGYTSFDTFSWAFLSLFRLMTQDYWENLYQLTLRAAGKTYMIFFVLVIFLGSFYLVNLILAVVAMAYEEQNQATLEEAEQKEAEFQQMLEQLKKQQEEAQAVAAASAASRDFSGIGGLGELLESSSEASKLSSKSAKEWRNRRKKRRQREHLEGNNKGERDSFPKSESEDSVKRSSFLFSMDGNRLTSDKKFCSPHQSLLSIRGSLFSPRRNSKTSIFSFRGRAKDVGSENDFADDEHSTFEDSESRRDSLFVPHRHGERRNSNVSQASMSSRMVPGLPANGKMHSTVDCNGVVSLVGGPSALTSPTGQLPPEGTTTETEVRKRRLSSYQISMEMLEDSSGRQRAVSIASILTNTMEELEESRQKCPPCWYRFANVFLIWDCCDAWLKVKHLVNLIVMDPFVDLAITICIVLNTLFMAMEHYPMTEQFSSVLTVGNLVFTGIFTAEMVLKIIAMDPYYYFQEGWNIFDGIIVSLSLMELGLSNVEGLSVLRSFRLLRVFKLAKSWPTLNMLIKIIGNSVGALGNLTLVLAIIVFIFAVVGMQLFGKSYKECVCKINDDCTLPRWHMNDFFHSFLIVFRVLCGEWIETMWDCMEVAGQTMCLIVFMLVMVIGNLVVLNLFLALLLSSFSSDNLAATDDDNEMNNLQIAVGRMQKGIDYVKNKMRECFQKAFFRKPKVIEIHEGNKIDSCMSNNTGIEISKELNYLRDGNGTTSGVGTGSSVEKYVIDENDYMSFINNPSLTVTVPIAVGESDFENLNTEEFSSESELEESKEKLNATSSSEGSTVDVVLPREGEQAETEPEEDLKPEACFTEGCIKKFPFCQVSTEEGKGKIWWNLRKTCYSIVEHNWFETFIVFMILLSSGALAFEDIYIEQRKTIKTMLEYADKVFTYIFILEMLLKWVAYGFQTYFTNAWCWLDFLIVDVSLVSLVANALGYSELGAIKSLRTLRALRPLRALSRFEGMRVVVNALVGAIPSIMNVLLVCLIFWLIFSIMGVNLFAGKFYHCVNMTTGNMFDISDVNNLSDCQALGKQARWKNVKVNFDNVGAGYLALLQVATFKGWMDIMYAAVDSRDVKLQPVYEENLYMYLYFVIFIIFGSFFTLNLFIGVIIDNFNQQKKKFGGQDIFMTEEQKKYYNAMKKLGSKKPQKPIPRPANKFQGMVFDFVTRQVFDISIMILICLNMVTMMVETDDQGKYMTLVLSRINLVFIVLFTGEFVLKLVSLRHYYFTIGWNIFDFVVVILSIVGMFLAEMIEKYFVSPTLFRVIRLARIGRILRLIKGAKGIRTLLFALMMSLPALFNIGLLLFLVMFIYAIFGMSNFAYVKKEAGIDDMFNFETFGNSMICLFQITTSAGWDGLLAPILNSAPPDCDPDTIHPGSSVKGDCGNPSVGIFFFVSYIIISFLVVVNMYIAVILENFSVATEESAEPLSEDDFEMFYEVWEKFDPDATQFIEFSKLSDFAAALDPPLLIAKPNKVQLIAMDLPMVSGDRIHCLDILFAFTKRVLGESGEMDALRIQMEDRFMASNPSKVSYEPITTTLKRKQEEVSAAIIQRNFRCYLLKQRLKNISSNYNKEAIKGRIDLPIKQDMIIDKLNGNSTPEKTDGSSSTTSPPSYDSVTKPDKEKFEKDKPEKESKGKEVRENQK

Row | SMILES | IC50 [1] | IC50 [2] | IC50 [3] | IC50 [4] | IC50 [5] | IC50 [6] | Nav1.4/Nav1.7 [3] | IC50 [7] | Nav1.5/Nav1.7 ([7]; ratio of PX IC50 values)
1 | CCCC[C@@H]1NC(=O)[C@H](Cc2c[nH]c3ccccc23)NC(=O)[C@H](CCCCN)NC(=O)[C@H](CCC(N)=O)NC(=O)[C@@H](NC(=O)[C@@H](N)Cc2ccc(O)cc2)CSSC[C@@H]2NC(=O)[C@@H]3CSSC[C@@H](C(=O)N[C@@H](CCCNC(=N)N)C(=O)N[C@@H](CCCCN)C(=O)N[C@H](C(=O)N[C@H](C(N)=O)[C@@H](C)CC)[C@@H](C)CC)NC(=O)[C@H](Cc4c[nH]c5ccccc45)NC(=O)[C@H](CC(C)C)NC(=O)[C@H](CCCCN)NC(=O)[C@H](CSSC[C@H](NC(=O)[C@H]([C@@H](C)O)NC(=O)[C@H](Cc4c[nH]c5ccccc45)NC1=O)C(=O)N[C@@H](CC(=O)O)C(=O)N[C@@H](CO)C(=O)N[C@@H](CCCCN)C(=O)N[C@@H](CCCNC(=N)N)C(=O)N[C@@H](C)C(=O)N3)NC(=O)[C@H](CCCNC(=N)N)NC(=O)[C@H](CC(C)C)NC(=O)CNC(=O)[C@H](CCC(=O)O)NC2=O [compound 272] | 0.586 nM | > 5000 nM | > 5000 nM | > 5000 nM | > 5000 nM |  |  |  | 
2 | CC[C@H](C)[C@H](NC(=O)[C@@H](NC(=O)[C@H](CCCCN)NC(=O)[C@H](CCCNC(=N)N)NC(=O)[C@@H]1CSSC[C@@H]2NC(=O)[C@H](C)NC(=O)[C@H](CCCNC(=N)N)NC(=O)[C@H](CCCCN)NC(=O)[C@H](CO)NC(=O)[C@H](CC(=O)O)NC(=O)[C@@H]3CSSC[C@H](NC(=O)[C@H](Cc4ccc(O)cc4)NC(=O)[C@H](CC(C)C)NC(=O)CNC(=O)[C@H](CCC(=O)O)NC(=O)[C@H](CSSC[C@H](NC(=O)[C@@H](N)Cc4ccc(O)cc4)C(=O)N[C@@H](CCC(N)=O)C(=O)N[C@@H](CCCCN)C(=O)N[C@@H](Cc4c[nH]c5ccccc45)C(=O)N[C@@H](CCSC)C(=O)N[C@@H](Cc4c[nH]c5ccccc45)C(=O)N[C@@H]([C@@H](C)O)C(=O)N3)NC2=O)C(=O)N[C@@H](CCCCN)C(=O)N[C@@H](CC(C)C)C(=O)N[C@@H](Cc2c[nH]c3ccccc23)C(=O)N1)[C@@H](C)CC)C(N)=O [compound 124] | 5.9 nM | 90 nM | 4000 nM | > 5000 nM | 10800 nM | 1570 nM | 43 | > 10000 nM | 
3 | CSCC[C@@H]1NC(=O)[C@H](Cc2c[nH]c3ccccc23)NC(=O)[C@H](CCCCN)NC(=O)[C@H](CCC(N)=O)NC(=O)[C@@H](NC(=O)[C@@H](N)Cc2ccc(O)cc2)CSSC[C@@H]2NC(=O)[C@@H]3CSSC[C@@H](C(=O)N[C@@H](CCCNC(=N)N)C(=O)N[C@@H](CCCCN)C(=O)N[C@@H](Cc4ccc(O)cc4)C(=O)N[C@@H](Cc4cccc5ccccc45)C(N)=O)NC(=O)[C@H](Cc4c[nH]c5ccccc45)NC(=O)[C@H](CC(C)C)NC(=O)[C@H](CCCCN)NC(=O)[C@H](CSSC[C@H](NC(=O)[C@H]([C@@H](C)O)NC(=O)[C@H](Cc4c[nH]c5ccccc45)NC1=O)C(=O)N[C@@H](CC(=O)O)C(=O)N[C@@H](CO)C(=O)N[C@@H](CCCCN)C(=O)N[C@@H](CCCNC(=N)N)C(=O)N[C@@H](C)C(=O)N3)NC(=O)[C@H](CCC(=O)O)NC(=O)[C@H](CC(C)C)NC(=O)CNC(=O)[C@H](CCC(=O)O)NC2=O [compound 232] | 4.5 nM | 50 nM | 4600 nM | 2100 nM | 4600 nM | 1670 nM | 91 | 2160 nM | 480
4 | CC[C@H](C)[C@H](NC(=O)[C@@H](NC(=O)[C@H](CCCCN)NC(=O)[C@H](CCCNC(=N)N)NC(=O)[C@@H]1CSSC[C@@H]2NC(=O)[C@H](C)NC(=O)[C@H](CCCNC(=N)N)NC(=O)[C@H](CCCCN)NC(=O)[C@H](CO)NC(=O)[C@H](CC(=O)O)NC(=O)[C@@H]3CSSC[C@H](NC(=O)[C@H](CCC(=O)O)NC(=O)[C@H](CC(C)C)NC(=O)CNC(=O)[C@H](CCC(=O)O)NC(=O)[C@H](CSSC[C@H](NC(=O)[C@@H](N)Cc4ccc(O)cc4)C(=O)N[C@@H](CCC(N)=O)C(=O)N[C@@H](CCCCN)C(=O)N[C@@H](Cc4c[nH]c5ccccc45)C(=O)N[C@@H](CCSC)C(=O)N[C@@H](Cc4c[nH]c5ccccc45)C(=O)N[C@@H]([C@@H](C)O)C(=O)N3)NC2=O)C(=O)N[C@@H](CCCCN)C(=O)N[C@@H](CC(C)C)C(=O)N[C@@H](Cc2c[nH]c3ccccc23)C(=O)N1)[C@@H](C)CC)C(N)=O [compound 63] | 7 nM | 360 nM | > 5000 nM | > 5000 nM | 9800 nM |  | 14 | 9330 nM | 
5 | CCC[C@@H]1NC(=O)[C@H](Cc2c[nH]c3ccccc23)NC(=O)[C@H](CCCCN)NC(=O)[C@H](CCC(N)=O)NC(=O)[C@@H](NC(=O)[C@@H](N)Cc2ccc(O)cc2)CSSC[C@@H]2NC(=O)[C@@H]3CSSC[C@@H](C(=O)N[C@@H](CCCNC(=N)N)C(=O)N[C@@H](CCCCN)C(=O)N[C@H](C(=O)N[C@H](C(N)=O)[C@@H](C)CC)[C@@H](C)CC)NC(=O)[C@H](Cc4c[nH]c5ccccc45)NC(=O)[C@H](CC(C)C)NC(=O)[C@H](CCCCN)NC(=O)[C@H](CSSC[C@H](NC(=O)[C@H]([C@@H](C)O)NC(=O)[C@H](Cc4c[nH]c5ccccc45)NC1=O)C(=O)N[C@@H](CC(=O)O)C(=O)N[C@@H](CO)C(=O)N[C@@H](CCCCN)C(=O)N[C@@H](CCCNC(=N)N)C(=O)N[C@@H](C)C(=O)N3)NC(=O)[C@H](CCC(=O)O)NC(=O)[C@H](CC(C)C)NC(=O)CNC(=O)[C@H](CCC(=O)O)NC2=O [compound 111] |  | 690 nM | > 5000 nM | > 5000 nM | 9200 nM |  | 7 |  | 
6 | CC[C@H](C)[C@H](NC(=O)[C@H](Cc1ccc(O)cc1)NC(=O)[C@H](CCCCN)NC(=O)[C@H](CCCNC(=N)N)NC(=O)[C@@H]1CSSC[C@@H]2NC(=O)[C@H](C)NC(=O)[C@H](CCCNC(=N)N)NC(=O)[C@H](CCCCN)NC(=O)[C@H](CO)NC(=O)[C@H](CC(=O)O)NC(=O)[C@@H]3CSSC[C@H](NC(=O)[C@H](CCC(=O)O)NC(=O)[C@H](CC(C)C)NC(=O)CNC(=O)[C@H](CCC(=O)O)NC(=O)[C@H](CSSC[C@H](NC(=O)[C@@H](N)Cc4ccc(O)cc4)C(=O)N[C@@H](CCC(N)=O)C(=O)N[C@@H](CCCCN)C(=O)N[C@@H](Cc4c[nH]c5ccccc45)C(=O)N[C@@H](CCSC)C(=O)N[C@@H](Cc4c[nH]c5ccccc45)C(=O)N[C@@H]([C@@H](C)O)C(=O)N3)NC2=O)C(=O)N[C@@H](CCCCN)C(=O)N[C@@H](CC(C)C)C(=O)N[C@@H](Cc2ccc3ccccc3c2)C(=O)N1)C(N)=O [compound 219] |  | 860 nM and 1000 nM | > 7000 nM | > 7000 nM | > 7000 nM |  |  |  | 
7 | CC[C@H](C)[C@H](NC(=O)[C@@H](NC(=O)[C@H](CCCCN)NC(=O)[C@H](CCCNC(=N)N)NC(=O)[C@@H]1CSSC[C@@H]2NC(=O)[C@H](C)NC(=O)[C@H](CCCNC(=N)N)NC(=O)[C@H](CCCCN)NC(=O)[C@H](CO)NC(=O)[C@H](CC(=O)O)NC(=O)[C@@H]3CSSC[C@H](NC(=O)[C@H]([C@@H](C)CC)NC(=O)[C@H](CC(C)C)NC(=O)CNC(=O)[C@H](CCC(=O)O)NC(=O)[C@H](CSSC[C@H](NC(=O)[C@@H](N)Cc4ccc(O)cc4)C(=O)N[C@@H](CCC(N)=O)C(=O)N[C@@H](CCCCN)C(=O)N[C@@H](Cc4c[nH]c5ccccc45)C(=O)N[C@@H](CCSC)C(=O)N[C@@H](Cc4c[nH]c5ccccc45)C(=O)N[C@@H]([C@@H](C)O)C(=O)N3)NC2=O)C(=O)N[C@@H](CCCCN)C(=O)N[C@@H](CC(C)C)C(=O)N[C@@H](Cc2c[nH]c3ccccc23)C(=O)N1)[C@@H](C)CC)C(N)=O [compound 118] |  | 90 nM | 1300 nM | 2200 nM | 8600 nM |  | 15 |  | 
8 | CC[C@H](C)[C@H](NC(=O)[C@H](Cc1ccc(O)cc1)NC(=O)[C@H](CCCCN)NC(=O)[C@H](CCCNC(=N)N)NC(=O)[C@@H]1CSSC[C@@H]2NC(=O)[C@H](C)NC(=O)[C@H](CCCNC(=N)N)NC(=O)[C@H](CCCCN)NC(=O)[C@H](CO)NC(=O)[C@H](CC(=O)O)NC(=O)[C@@H]3CSSC[C@H](NC(=O)[C@H](CCC(=O)O)NC(=O)[C@H](CC(C)C)NC(=O)CNC(=O)[C@H](CCC(=O)O)NC(=O)[C@H](CSSC[C@H](NC(=O)[C@@H](N)Cc4ccc(O)cc4)C(=O)N[C@@H](CCC(N)=O)C(=O)N[C@@H](CCCCN)C(=O)N[C@@H](CCCCN)C(=O)N[C@@H](CCSC)C(=O)N[C@@H](Cc4c[nH]c5ccccc45)C(=O)N[C@@H]([C@@H](C)O)C(=O)N3)NC2=O)C(=O)N[C@@H](CCCCN)C(=O)N[C@@H](CC(C)C)C(=O)N[C@@H](Cc2c[nH]c3ccccc23)C(=O)N1)C(N)=O [compound 200] |  | > 5000 nM | > 5000 nM | > 5000 nM | > 5000 nM |  |  |  | 
